The text below walks through data of ChEMBL document CHEMBL1201862, “PubChem BioAssay data set” (2004).

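Tested at 5 concentrations; 48 h exposure; 96-well plates; endpoints linearly interpolated, else capped at highest concentration. The concentration for 50% growth inhibition is given as GI50.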 Calls of active or inactive are those of the source. No stated cut-off is given here; in the data, active = GI50 up to about 1.1 µM and inactive = higher.

Some test systems named below: MDA-MB-231; OVCAR-3; DU-145; SF-295; NCI/ADR-RES; HOP-62; OVCAR-4; M14; SNB-75; K562; SK-MEL-28; NCI-H226; HCC 2998; NCI-H522; COLO 205; LOX IMVI; SR; HT-29; HOP-92; A498.
Common to all, as to experiment: NCI anticancer screen, dose series, 48 h

Regarding `Cc1c(NC(=O)CSC(=S)N(C)C)c(=O)n(-c2ccccc2)n1C`, the GI50 in the experiment with MDA-MB-231, in the experiment on OVCAR-3, in the experiment on DU-145, with SF-295, in the experiment on NCI/ADR-RES and in the experiment on HOP-62 was > 100 µM (inactive) in each case. In addition, the GI50 in the experiment with OVCAR-4, with M14, in the experiment on SNB-75, in the experiment with K562, with SK-MEL-28 and with NCI-H226 was > 100 µM (inactive) in each case. The GI50 in the experiment on HCC 2998, in the experiment with NCI-H522, in the experiment on COLO 205, with LOX IMVI, in the experiment with SR and in the experiment with HT-29 was > 100 µM (inactive) throughout.

Consider `CSC(SC)(C(=O)O)c1cc(-c2c(Cl)cccc2Cl)no1`, for which the GI50 was 31.4 µM (inactive) in the experiment on MDA-MB-231; 55.6 µM (inactive) with OVCAR-3; > 100 µM (inactive) in the experiment on DU-145; 91.2 µM (inactive) with SF-295; 26.5 µM (inactive) in the experiment with NCI/ADR-RES; 87.5 µM (inactive) with HOP-62. The GI50 was 37.9 µM (inactive) in the experiment on OVCAR-4; 30.2 µM (inactive) in the experiment with M14; 33 µM (inactive) in the experiment with SNB-75; 50.8 µM (inactive) in the experiment with K562; > 100 µM (inactive) with SK-MEL-28; 25.1 µM (inactive) with NCI-H226. Also, the GI50 with NCI-H522 is 28.5 µM (inactive); with HOP-92, 98.9 µM (inactive); in the experiment with COLO 205 it was 34.4 µM (inactive); with LOX IMVI it was 35.6 µM (inactive); with SR it was 33 µM (inactive); in the experiment on HT-29, 32.9 µM (inactive).

In the case of `O=C(NNc1nc(-c2ccccc2)cs1)C(F)(F)F`, the GI50 was 68.7 µM (inactive) in the experiment on MDA-MB-231; 53.1 µM (inactive) with DU-145; 29.5 µM (inactive) in the experiment with SF-295; 29.9 µM (inactive) in the experiment with NCI/ADR-RES; 33.2 µM (inactive) in the experiment on HOP-62; > 100 µM (inactive) with OVCAR-4. Moreover, the GI50 with M14 is 57.1 µM (inactive); in the experiment with SNB-75 it was 19 µM (inactive); in the experiment with K562, 25 µM (inactive); in the experiment on A498 it was 37.1 µM (inactive); in the experiment with SK-MEL-28, 25.8 µM (inactive); in the experiment on NCI-H226, 20.5 µM (inactive). Further, the GI50 in the experiment on HCC 2998 is 95.1 µM (inactive); in the experiment with NCI-H522 it was 35.7 µM (inactive); in the experiment with COLO 205 it was 35.8 µM (inactive); in the experiment with LOX IMVI, 57.7 µM (inactive); in the experiment with SR, 33.4 µM (inactive); in the experiment on HT-29, 47.2 µM (inactive).

Consider `Cc1c(O)nc(-n2[nH]c3c(c2=O)CCCC3)[nH]c1=O`, for which the GI50 in the experiment on MDA-MB-231, in the experiment on DU-145, with SF-295, in the experiment on NCI/ADR-RES, in the experiment on OVCAR-4 and with M14 was > 100 µM (inactive) throughout. For the same molecule, the GI50 with K562, in the experiment with A498, with SK-MEL-28, with NCI-H226, in the experiment on NCI-H522 and in the experiment with HOP-92 was > 100 µM (inactive) throughout. Also, the GI50 in the experiment on COLO 205, in the experiment with SR and in the experiment with HT-29 was > 100 µM (inactive) in each case.

`Nc1nc2cc(CNc3ccc(C(=O)O)cc3)ccc2nc1-c1ccccc1`: the GI50 in the experiment on MDA-MB-231 was > 100 µM (inactive); in the experiment with OVCAR-3 it was > 100 µM (inactive); in the experiment with DU-145, 44.6 µM (inactive); in the experiment with SF-295, > 100 µM (inactive); in the experiment with NCI/ADR-RES, > 100 µM (inactive); in the experiment with HOP-62, > 100 µM (inactive). Moreover, the GI50 with OVCAR-4 was > 100 µM (inactive); with M14, > 100 µM (inactive); with SNB-75, 66.5 µM (inactive); in the experiment on K562, > 100 µM (inactive); in the experiment on A498 it was > 100 µM (inactive); with SK-MEL-28, > 100 µM (inactive). In addition, the GI50 is > 100 µM (inactive) in the experiment with NCI-H226; > 100 µM (inactive) in the experiment on HCC 2998; > 100 µM (inactive) in the experiment on NCI-H522; > 100 µM (inactive) in the experiment with COLO 205; 54.2 µM (inactive) in the experiment with LOX IMVI; > 100 µM (inactive) in the experiment with SR. Also, the GI50 in the experiment with HT-29 was > 100 µM (inactive).

Take `CCCCc1ccc(N2C(=O)c3cc(C)cnc3S2(=O)=O)cc1`: the GI50 in the experiment on MDA-MB-231 was > 100 µM (inactive); with OVCAR-3 it was > 100 µM (inactive); with DU-145, > 100 µM (inactive); in the experiment on SF-295, 91.8 µM (inactive); with NCI/ADR-RES it was > 100 µM (inactive); in the experiment with HOP-62, 85.7 µM (inactive). Moreover, the GI50 with OVCAR-4 is > 100 µM (inactive); in the experiment with M14, > 100 µM (inactive); with SNB-75 it was 59.2 µM (inactive); in the experiment on K562, > 100 µM (inactive); in the experiment with SK-MEL-28, > 100 µM (inactive); in the experiment with NCI-H226 it was > 100 µM (inactive). Also, the GI50 in the experiment on HCC 2998, with NCI-H522, with HOP-92, with COLO 205, in the experiment on LOX IMVI and in the experiment with SR was > 100 µM (inactive) each time. In addition, the GI50 with HT-29 was > 100 µM (inactive).

For `Cc1nc(N)c(N2CCN(S(N)(=O)=O)CC2)c(O)n1`, the GI50 in the experiment with MDA-MB-231, with OVCAR-3, in the experiment with DU-145, in the experiment on SF-295, in the experiment on NCI/ADR-RES and in the experiment with HOP-62 was > 100 µM (inactive) throughout. Besides, the GI50 in the experiment on OVCAR-4, in the experiment on M14, in the experiment with SNB-75, in the experiment with K562, with A498 and in the experiment with SK-MEL-28 was > 100 µM (inactive) throughout. Besides, the GI50 with NCI-H226, in the experiment on HCC 2998, in the experiment on NCI-H522, in the experiment on COLO 205, in the experiment on LOX IMVI and in the experiment on SR was > 100 µM (inactive) throughout. The GI50 with HT-29 was > 100 µM (inactive).

As to `O=C(/C=C(\O)c1cc(-c2ccccc2)n(-c2ccccc2)n1)c1ccccc1`, the GI50 is 3.49 µM (inactive) in the experiment with MDA-MB-231; 4.84 µM (inactive) in the experiment on OVCAR-3; 3.61 µM (inactive) in the experiment with DU-145; 8.17 µM (inactive) in the experiment with SF-295; 5.38 µM (inactive) in the experiment with NCI/ADR-RES; 3.46 µM (inactive) in the experiment with HOP-62. The GI50 in the experiment on M14 is 6.24 µM (inactive); in the experiment with K562, 3.46 µM (inactive); in the experiment with A498 it was > 100 µM (inactive); in the experiment on SK-MEL-28, 0.631 µM (active); with NCI-H226, 3.38 µM (inactive); in the experiment on HCC 2998, 18.2 µM (inactive). Further, the GI50 is 3.52 µM (inactive) in the experiment on NCI-H522; 4.69 µM (inactive) in the experiment on COLO 205; 4.37 µM (inactive) in the experiment with LOX IMVI; 1.12 µM (active) with SR; 3.58 µM (inactive) in the experiment on HT-29.

In the case of `Cc1csc2nc(-c3ccc([N+](=O)[O-])cc3)c(/C=N/N=C(N)N)n12`, the GI50 was 1.76 µM (inactive) in the experiment with MDA-MB-231; 2.49 µM (inactive) in the experiment with OVCAR-3; 2.21 µM (inactive) in the experiment with DU-145; 1.74 µM (inactive) in the experiment with SF-295; 6.89 µM (inactive) with NCI/ADR-RES; 1.7 µM (inactive) in the experiment on HOP-62. The GI50 in the experiment with OVCAR-4 is 1.53 µM (inactive); in the experiment on M14 it was 1.85 µM (inactive); in the experiment with SNB-75, 1.58 µM (inactive); in the experiment with K562 it was 1.81 µM (inactive); in the experiment on A498, 1.82 µM (inactive); in the experiment with SK-MEL-28, 1.74 µM (inactive). Also, the GI50 is 1.73 µM (inactive) in the experiment on NCI-H226; < 0.01 µM (active) in the experiment with HCC 2998; 1.63 µM (inactive) with NCI-H522; < 0.01 µM (active) in the experiment on HOP-92; 1.53 µM (inactive) in the experiment on COLO 205; 1.9 µM (inactive) in the experiment with LOX IMVI. In addition, in the experiment with HT-29, the GI50 was 1.76 µM (inactive).

With `N#Cc1c(O)c(/N=N/c2ccccc2F)c(=O)n2c1[nH]c1ccccc12`, the GI50 in the experiment with MDA-MB-231 was 22.2 µM (inactive); with OVCAR-3, 36 µM (inactive); with DU-145, 42.4 µM (inactive); in the experiment on SF-295, 33 µM (inactive); in the experiment on NCI/ADR-RES, 50 µM (inactive); in the experiment with HOP-62, 43.7 µM (inactive). Besides, the GI50 in the experiment on OVCAR-4 is 39.3 µM (inactive); with M14 it was 22.4 µM (inactive); in the experiment with SNB-75, 30.4 µM (inactive); in the experiment on K562 it was 36.3 µM (inactive); with A498 it was 60.5 µM (inactive); in the experiment with SK-MEL-28, 29.4 µM (inactive). Besides, the GI50 with NCI-H226 was 33.7 µM (inactive); in the experiment with HCC 2998, 53.6 µM (inactive); in the experiment on NCI-H522 it was 27.9 µM (inactive); with HOP-92 it was 15.1 µM (inactive); in the experiment with COLO 205 it was 55.1 µM (inactive); in the experiment on LOX IMVI, 61.9 µM (inactive). Further, in the experiment with HT-29, the GI50 was 23.3 µM (inactive).

In the case of `COc1ccc2[nH]c(C(=O)N3CC(CCl)c4ccc(N)cc43)cc2c1` (stereo not given), the GI50 in the experiment on MDA-MB-231 is 0.202 µM (active); with OVCAR-3 it was 0.27 µM (active); with DU-145, 0.0551 µM (active); in the experiment with SF-295, 0.201 µM (active); in the experiment with NCI/ADR-RES it was 0.0912 µM (active); with HOP-62 it was 0.327 µM (active). In addition, the GI50 is 0.163 µM (active) with OVCAR-4; 0.146 µM (active) with M14; 0.178 µM (active) in the experiment with SNB-75; 0.128 µM (active) in the experiment on K562; 0.0789 µM (active) in the experiment on A498; 0.368 µM (active) in the experiment with SK-MEL-28. Further, the GI50 is 0.32 µM (active) in the experiment with NCI-H226; 0.14 µM (active) with HCC 2998; 0.0161 µM (active) in the experiment on NCI-H522; 0.634 µM (active) with HOP-92; 0.2 µM (active) with COLO 205; 0.177 µM (active) with LOX IMVI. Besides, the GI50 in the experiment on HT-29 was 0.151 µM (active).
